Experimental data: ChEMBL document CHEMBL3885861, “Open TG-GATES”

Species: Rattus norvegicus
Experiment: Open TG-GATES - Regimen: Single
Type: toxicity, organism-based, Sprague-Dawley
Set-up: regimen Single, gender Male, age 6 weeks
Details: in vivo, po, route gavage; for APTT / Bas / Eos / Fbg / Hb / Ht / Lym / MCH / MCHC / MCV / Mono / Neu / PT / Plat / RBC / Ret / WBC: tissue Blood; for KIDNEY_L / KIDNEY_R / KIDNEY_TOTAL: tissue Kidney; for LIVER: tissue Liver; for ALP / ALT / AST / BUN / CRE / Ca / Cl / DBIL / GLC / IP / K / LDH / Na / PL / RALB / TBIL / TC / TG / TP / gamma-GTP: tissue Plasma
[1] = 100 mg/kg, 3 h, dose level Middle
[2] = 100 mg/kg, 6 h, dose level Middle
[3] = 100 mg/kg, 9 h, dose level Middle
[4] = 100 mg/kg, 24 h, dose level Middle
[5] = 1000 mg/kg, 3 h, dose level High
[6] = 1000 mg/kg, 6 h, dose level High
[7] = 1000 mg/kg, 9 h, dose level High
[8] = 1000 mg/kg, 24 h, dose level High

COc1cc([C@@H]2c3cc4c(cc3[C@@H](O[C@@H]3O[C@@H]5CO[C@@H](C)O[C@H]5[C@H](O)[C@H]3O)[C@H]3COC(=O)[C@H]23)OCO4)cc(OC)c1O [ETOPOSIDE]
TERMINAL_BW [1]: 196.5 g
APTT [1]: 17 s
Bas [1]: 0%
Eos [1]: 1%
Fbg [1]: 184.4 mg/dL
Hb [1]: 13.6 g/dL
Ht [1]: 40.5%
Lym [1]: 78.6%
MCH [1]: 21.7 pg
MCHC [1]: 33.7%
MCV [1]: 64.4 fL
Mono [1]: 8.2%
Neu [1]: 12.2%
PT [1]: 12.3 s
Plat [1]: 118 x10_4/uL
RBC [1]: 628.4 x10_4/ul
Ret [1]: 9.8%
WBC [1]: 104.2 x10_2/uL
KIDNEY_L [1]: 0.9 g
KIDNEY_R [1]: 0.9 g
KIDNEY_TOTAL [1]: 1.8 g
LIVER [1]: 9.1 g
ALP [1]: 1074.8 IU/L
ALT [1]: 36 IU/L
AST [1]: 69.4 IU/L
BUN [1]: 13.8 mg/dL
CRE [1]: 0.5 mg/dL
Ca [1]: 10.6 mg/dL
Cl [1]: 103.8 meq/L
DBIL [1]: 0.026 mg/dL
GLC [1]: 193 mg/dL
IP [1]: 9.6 mg/dL
K [1]: 4.3 meq/L
LDH [1]: 111 IU/L
Na [1]: 141.6 meq/L
PL [1]: 137.2 mg/dL
RALB [1]: 3.4 g/dL
TBIL [1]: 0.3 mg/dL
TC [1]: 78.6 mg/dL
TG [1]: 45.4 mg/dL
TP [1]: 5.2 g/dL
gamma-GTP [1]: 1.4 IU/L
TERMINAL_BW [2]: 198.5 g
APTT [2]: 17.4 s
Bas [2]: 0%
Eos [2]: 1%
Fbg [2]: 198 mg/dL
Hb [2]: 13.6 g/dL
Ht [2]: 40.5%
Lym [2]: 76.6%
MCH [2]: 21.9 pg
MCHC [2]: 33.7%
MCV [2]: 65.1 fL
Mono [2]: 9.8%
Neu [2]: 13%
PT [2]: 11.9 s
Plat [2]: 110.3 x10_4/uL
RBC [2]: 622 x10_4/ul
Ret [2]: 10%
WBC [2]: 69.6 x10_2/uL
KIDNEY_L [2]: 0.9 g
KIDNEY_R [2]: 0.9 g
KIDNEY_TOTAL [2]: 1.9 g
LIVER [2]: 8.9 g
ALP [2]: 933.8 IU/L
ALT [2]: 29.4 IU/L
AST [2]: 62.2 IU/L
BUN [2]: 11.4 mg/dL
CRE [2]: 0.6 mg/dL
Ca [2]: 10.7 mg/dL
Cl [2]: 105 meq/L
DBIL [2]: 0.02 mg/dL
GLC [2]: 196.2 mg/dL
IP [2]: 10.5 mg/dL
K [2]: 4.7 meq/L
LDH [2]: 98.4 IU/L
Na [2]: 141.6 meq/L
PL [2]: 137.8 mg/dL
RALB [2]: 3.3 g/dL
TBIL [2]: 0.4 mg/dL
TC [2]: 78 mg/dL
TG [2]: 40.2 mg/dL
TP [2]: 5.3 g/dL
gamma-GTP [2]: 0.8 IU/L
TERMINAL_BW [3]: 197 g
APTT [3]: 16.9 s
Bas [3]: 0%
Eos [3]: 1%
Fbg [3]: 206.8 mg/dL
Hb [3]: 13 g/dL
Ht [3]: 38.8%
Lym [3]: 77.8%
MCH [3]: 21.5 pg
MCHC [3]: 33.5%
MCV [3]: 64.3 fL
Mono [3]: 6.8%
Neu [3]: 14.6%
PT [3]: 11.2 s
Plat [3]: 109 x10_4/uL
RBC [3]: 604.2 x10_4/ul
Ret [3]: 8.2%
WBC [3]: 72.5 x10_2/uL
KIDNEY_L [3]: 0.9 g
KIDNEY_R [3]: 1 g
KIDNEY_TOTAL [3]: 1.9 g
LIVER [3]: 8.5 g
ALP [3]: 842.6 IU/L
ALT [3]: 33.4 IU/L
AST [3]: 63.6 IU/L
BUN [3]: 12.8 mg/dL
CRE [3]: 0.5 mg/dL
Ca [3]: 10.4 mg/dL
Cl [3]: 105.8 meq/L
DBIL [3]: 0.048 mg/dL
GLC [3]: 199 mg/dL
IP [3]: 10.6 mg/dL
K [3]: 4.6 meq/L
LDH [3]: 78.4 IU/L
Na [3]: 143.2 meq/L
PL [3]: 114 mg/dL
RALB [3]: 3.5 g/dL
TBIL [3]: 0.4 mg/dL
TC [3]: 67.6 mg/dL
TG [3]: 27.6 mg/dL
TP [3]: 5.4 g/dL
gamma-GTP [3]: 1.6 IU/L
TERMINAL_BW [4]: 207.9 g
APTT [4]: 16 s
Bas [4]: 0%
Eos [4]: 1%
Fbg [4]: 206 mg/dL
Hb [4]: 13.4 g/dL
Ht [4]: 39.8%
Lym [4]: 86.4%
MCH [4]: 21.4 pg
MCHC [4]: 33.7%
MCV [4]: 63.4 fL
Mono [4]: 4.8%
Neu [4]: 8%
PT [4]: 11.7 s
Plat [4]: 113.3 x10_4/uL
RBC [4]: 628.4 x10_4/ul
Ret [4]: 7.4%
WBC [4]: 74.6 x10_2/uL
KIDNEY_L [4]: 1 g
KIDNEY_R [4]: 1 g
KIDNEY_TOTAL [4]: 2 g
LIVER [4]: 9.3 g
ALP [4]: 999.2 IU/L
ALT [4]: 30.4 IU/L
AST [4]: 64.8 IU/L
CRE [4]: 0.5 mg/dL
Ca [4]: 10.9 mg/dL
Cl [4]: 104.8 meq/L
DBIL [4]: 0.028 mg/dL
GLC [4]: 192.4 mg/dL
IP [4]: 9.1 mg/dL
K [4]: 5 meq/L
LDH [4]: 94.6 IU/L
Na [4]: 140.6 meq/L
PL [4]: 134.4 mg/dL
RALB [4]: 3.6 g/dL
TBIL [4]: 0.3 mg/dL
TC [4]: 78.2 mg/dL
TG [4]: 60 mg/dL
TP [4]: 5.5 g/dL
gamma-GTP [4]: 1.2 IU/L
TERMINAL_BW [5]: 199.8 g
APTT [5]: 16.9 s
Bas [5]: 0%
Eos [5]: 1%
Fbg [5]: 194.6 mg/dL
Hb [5]: 13.4 g/dL
Ht [5]: 39.9%
Lym [5]: 75.2%
MCH [5]: 22.5 pg
MCHC [5]: 33.7%
MCV [5]: 66.6 fL
Mono [5]: 7.6%
Neu [5]: 16.2%
PT [5]: 12.1 s
Plat [5]: 113.8 x10_4/uL
RBC [5]: 599 x10_4/ul
Ret [5]: 9.6%
WBC [5]: 81.2 x10_2/uL
KIDNEY_L [5]: 0.9 g
KIDNEY_R [5]: 0.9 g
KIDNEY_TOTAL [5]: 1.8 g
LIVER [5]: 9.6 g
ALP [5]: 906.2 IU/L
ALT [5]: 35.8 IU/L
AST [5]: 68 IU/L
BUN [5]: 12.4 mg/dL
CRE [5]: 0.4 mg/dL
Ca [5]: 10.5 mg/dL
Cl [5]: 104 meq/L
DBIL [5]: 0.026 mg/dL
GLC [5]: 186.8 mg/dL
IP [5]: 9.8 mg/dL
K [5]: 4.5 meq/L
LDH [5]: 112.4 IU/L
Na [5]: 141 meq/L
PL [5]: 132 mg/dL
RALB [5]: 3.3 g/dL
TBIL [5]: 0.3 mg/dL
TC [5]: 71.2 mg/dL
TG [5]: 39.4 mg/dL
TP [5]: 5.2 g/dL
gamma-GTP [5]: 2 IU/L
TERMINAL_BW [6]: 200.5 g
APTT [6]: 16.7 s
Bas [6]: 0%
Eos [6]: 0.6%
Fbg [6]: 194.4 mg/dL
Hb [6]: 13.4 g/dL
Ht [6]: 39.7%
Lym [6]: 74.4%
MCH [6]: 22.1 pg
MCHC [6]: 33.8%
MCV [6]: 65.4 fL
Mono [6]: 10.6%
Neu [6]: 14.6%
PT [6]: 11.9 s
Plat [6]: 114.8 x10_4/uL
RBC [6]: 606.4 x10_4/ul
Ret [6]: 11.1%
WBC [6]: 76.4 x10_2/uL
KIDNEY_L [6]: 0.9 g
KIDNEY_R [6]: 0.9 g
KIDNEY_TOTAL [6]: 1.8 g
LIVER [6]: 8.9 g
ALP [6]: 782.6 IU/L
ALT [6]: 31.6 IU/L
AST [6]: 65.8 IU/L
BUN [6]: 11 mg/dL
CRE [6]: 0.6 mg/dL
Ca [6]: 10.4 mg/dL
Cl [6]: 104 meq/L
DBIL [6]: 0.006 mg/dL
GLC [6]: 193.6 mg/dL
IP [6]: 10.5 mg/dL
K [6]: 4.8 meq/L
LDH [6]: 105.4 IU/L
Na [6]: 140 meq/L
PL [6]: 140.2 mg/dL
RALB [6]: 3.3 g/dL
TBIL [6]: 0.3 mg/dL
TC [6]: 82.8 mg/dL
TG [6]: 39 mg/dL
TP [6]: 5.2 g/dL
gamma-GTP [6]: 1 IU/L
TERMINAL_BW [7]: 193.9 g
APTT [7]: 17.2 s
Bas [7]: 0%
Eos [7]: 0.6%
Fbg [7]: 201 mg/dL
Hb [7]: 13.8 g/dL
Ht [7]: 41.4%
Lym [7]: 86.4%
MCH [7]: 21.9 pg
MCHC [7]: 33.4%
MCV [7]: 65.7 fL
Mono [7]: 3.8%
Neu [7]: 9.2%
PT [7]: 11.3 s
Plat [7]: 117 x10_4/uL
RBC [7]: 630.4 x10_4/ul
Ret [7]: 8.4%
WBC [7]: 65.4 x10_2/uL
KIDNEY_L [7]: 0.9 g
KIDNEY_R [7]: 0.9 g
KIDNEY_TOTAL [7]: 1.8 g
LIVER [7]: 8.3 g
ALP [7]: 794 IU/L
ALT [7]: 29.4 IU/L
AST [7]: 63.4 IU/L
BUN [7]: 13.2 mg/dL
CRE [7]: 0.5 mg/dL
Ca [7]: 10.6 mg/dL
Cl [7]: 105.4 meq/L
DBIL [7]: 0.022 mg/dL
GLC [7]: 212.6 mg/dL
IP [7]: 10.1 mg/dL
K [7]: 4.7 meq/L
LDH [7]: 81.4 IU/L
Na [7]: 142.2 meq/L
PL [7]: 124.6 mg/dL
RALB [7]: 3.5 g/dL
TBIL [7]: 0.4 mg/dL
TC [7]: 67.6 mg/dL
TG [7]: 26.4 mg/dL
TP [7]: 5.4 g/dL
gamma-GTP [7]: 1.8 IU/L
TERMINAL_BW [8]: 205.7 g
APTT [8]: 16.4 s
Bas [8]: 0%
Eos [8]: 1%
Fbg [8]: 207 mg/dL
Hb [8]: 13.6 g/dL
Ht [8]: 40.4%
Lym [8]: 82.6%
MCH [8]: 21.5 pg
MCHC [8]: 33.6%
MCV [8]: 63.9 fL
Mono [8]: 9%
Neu [8]: 7.4%
PT [8]: 11.9 s
Plat [8]: 111.5 x10_4/uL
RBC [8]: 634 x10_4/ul
Ret [8]: 6.1%
WBC [8]: 56.3 x10_2/uL
KIDNEY_L [8]: 1 g
KIDNEY_R [8]: 1 g
KIDNEY_TOTAL [8]: 1.9 g
LIVER [8]: 8.8 g
ALP [8]: 979.6 IU/L
ALT [8]: 32 IU/L
AST [8]: 66.6 IU/L
CRE [8]: 0.5 mg/dL
Ca [8]: 10.9 mg/dL
Cl [8]: 104.8 meq/L
DBIL [8]: 0.01 mg/dL
GLC [8]: 182.8 mg/dL
IP [8]: 9.2 mg/dL
K [8]: 5 meq/L
LDH [8]: 103.4 IU/L
Na [8]: 140.2 meq/L
PL [8]: 136.6 mg/dL
RALB [8]: 3.5 g/dL
TBIL [8]: 0.3 mg/dL
TC [8]: 81 mg/dL
TG [8]: 47.6 mg/dL
TP [8]: 5.6 g/dL
gamma-GTP [8]: 1.6 IU/L
